Measurements taken from ChEMBL document CHEMBL1201862, “PubChem BioAssay data set” (2004).
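Where inhibition never reached the appropriate level, the endpoint shown equals the highest concentration tested. Otherwise, values were interpolated linearly from a five-concentration, 48-hour dose response in 96-well plates. The concentration for 50% growth inhibition is given as GI50.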 Activity calls are given as the source filed them. Cut-off read from the data, not from the text of the source: active = GI50 up to about 1.1 µM and inactive = higher.

Columns and labels:
Experiment in all cases: NCI tumour cell line growth inhibition, 48 h
[1] = test system: CCRF-CEM
[2] = test system: OVCAR-8
[3] = test system: HCC 2998
[4] = test system: OVCAR-3
[5] = test system: KM12
[6] = test system: LOX IMVI
[7] = test system: SK-MEL-2
[8] = test system: OVCAR-4
[9] = test system: MDA-MB-231
[10] = test system: PC-3
[11] = test system: HT-29
[12] = test system: SF-268
[13] = test system: RXF 393
[14] = test system: TK-10
[15] = test system: SK-MEL-5
[16] = test system: SF-295
[17] = test system: UACC-62
[18] = test system: UO-31
[19] = test system: 786-0
[20] = test system: RPMI-8226

Structure (SMILES)	GI50 [1]	GI50 [2]	GI50 [3]	GI50 [4]	GI50 [5]	GI50 [6]	GI50 [7]	GI50 [8]	GI50 [9]	GI50 [10]	GI50 [11]	GI50 [12]	GI50 [13]	GI50 [14]	GI50 [15]	GI50 [16]	GI50 [17]	GI50 [18]	GI50 [19]	GI50 [20]
O=C1c2cc([N+](=O)[O-])sc2C(=O)c2c([N+](=O)[O-])csc21	0.0759 µM (active)	0.785 µM (active)	0.782 µM (active)	0.122 µM (active)	1.24 µM (inactive)	0.112 µM (active)	1.53 µM (inactive)	0.64 µM (active)	0.551 µM (active)	1.33 µM (inactive)	1.17 µM (inactive)	0.708 µM (active)	0.706 µM (active)	1.63 µM (inactive)	0.166 µM (active)	0.968 µM (active)	0.378 µM (active)	1.87 µM (inactive)	0.483 µM (active)	0.282 µM (active)
Cc1ccc(S(=O)(=O)N/N=C2\CCCCCCCCCCC2CN(C)C)cc1 (stereo not given)	15.7 µM (inactive)	16.8 µM (inactive)	8.43 µM (inactive)	17.5 µM (inactive)	17.9 µM (inactive)	17.1 µM (inactive)	10.6 µM (inactive)	18 µM (inactive)	18.9 µM (inactive)	15.3 µM (inactive)	15.5 µM (inactive)	21.3 µM (inactive)	11.6 µM (inactive)	14.4 µM (inactive)	11.2 µM (inactive)	16.8 µM (inactive)	18.2 µM (inactive)	9.04 µM (inactive)	15.9 µM (inactive)	38.7 µM (inactive)
CCO[C@@]1(COCc2ccccc2)OC(=O)C[C@@H]1N1C(=O)OC[C@@H]1c1ccccc1	> 100 µM (inactive)	> 100 µM (inactive)	> 100 µM (inactive)	41.5 µM (inactive)	32.5 µM (inactive)	> 100 µM (inactive)	> 100 µM (inactive)	> 100 µM (inactive)	> 100 µM (inactive)	> 100 µM (inactive)	> 100 µM (inactive)	> 100 µM (inactive)	> 100 µM (inactive)	> 100 µM (inactive)	> 100 µM (inactive)	> 100 µM (inactive)	> 100 µM (inactive)	> 100 µM (inactive)	> 100 µM (inactive)	> 100 µM (inactive)
COc1ccc(-c2cc(=O)c3c(O)c(OC)c(O)cc3o2)cc1O	3.7 µM (inactive)	9.55 µM (inactive)	6.12 µM (inactive)	9.04 µM (inactive)	3.18 µM (inactive)	3.51 µM (inactive)	3.93 µM (inactive)	50.5 µM (inactive)	5.51 µM (inactive)	10 µM (inactive)	16 µM (inactive)	10.7 µM (inactive)	9.4 µM (inactive)	68.2 µM (inactive)	3.41 µM (inactive)	2.83 µM (inactive)	4.04 µM (inactive)	6.27 µM (inactive)	4.95 µM (inactive)	2.45 µM (inactive)
O=C1CCc2c(sc3ncnc(Nc4cccc(Br)c4)c23)C1	2.08 µM (inactive)	3.26 µM (inactive)	4.26 µM (inactive)	2.51 µM (inactive)	3.6 µM (inactive)	3.49 µM (inactive)	6.89 µM (inactive)	2.52 µM (inactive)	3.27 µM (inactive)	3.07 µM (inactive)	12.1 µM (inactive)	3.92 µM (inactive)	2.73 µM (inactive)	4.06 µM (inactive)	1.88 µM (inactive)	3.88 µM (inactive)	3.72 µM (inactive)	1.99 µM (inactive)	4.43 µM (inactive)	2.58 µM (inactive)
CC(CO)C1=CC(C#CCOCc2ccccc2)N(C(=O)Oc2ccccc2)c2ccccc21 (stereo not given)	15 µM (inactive)	30.5 µM (inactive)	25.5 µM (inactive)	9.35 µM (inactive)	14.9 µM (inactive)	33.5 µM (inactive)	23.3 µM (inactive)	3.48 µM (inactive)	39.6 µM (inactive)	14.4 µM (inactive)	18.6 µM (inactive)	24.9 µM (inactive)	3.33 µM (inactive)	48.1 µM (inactive)	21.4 µM (inactive)	7.24 µM (inactive)	2.81 µM (inactive)	26.4 µM (inactive)	28 µM (inactive)	13.1 µM (inactive)
C=CCN1C(=O)CNC1=S	5.35 µM (inactive)	> 100 µM (inactive)	> 100 µM (inactive)	> 100 µM (inactive)	> 100 µM (inactive)	> 100 µM (inactive)	> 100 µM (inactive)	> 100 µM (inactive)	> 100 µM (inactive)	> 100 µM (inactive)	> 100 µM (inactive)	> 100 µM (inactive)	> 100 µM (inactive)	> 100 µM (inactive)	> 100 µM (inactive)	> 100 µM (inactive)	> 100 µM (inactive)	> 100 µM (inactive)	> 100 µM (inactive)	> 100 µM (inactive)
CCOC(=O)C(=CNC(=S)Nc1c(CC)cccc1CC)C(=O)OCC	> 100 µM (inactive)	> 100 µM (inactive)	> 100 µM (inactive)	> 100 µM (inactive)	> 100 µM (inactive)	> 100 µM (inactive)	> 100 µM (inactive)	> 100 µM (inactive)	> 100 µM (inactive)	> 100 µM (inactive)	> 100 µM (inactive)	> 100 µM (inactive)	> 100 µM (inactive)	> 100 µM (inactive)	> 100 µM (inactive)	> 100 µM (inactive)	> 100 µM (inactive)	> 100 µM (inactive)	> 100 µM (inactive)	> 100 µM (inactive)
CN1C(=O)C(C(=O)Nc2ccccn2)C2C[C@@]1(C)Oc1ccccc12 (stereo not given in full)	> 100 µM (inactive)	> 100 µM (inactive)	> 100 µM (inactive)	> 100 µM (inactive)	> 100 µM (inactive)	> 100 µM (inactive)	> 100 µM (inactive)	> 100 µM (inactive)	> 100 µM (inactive)	> 100 µM (inactive)	> 100 µM (inactive)	> 100 µM (inactive)	> 100 µM (inactive)	> 100 µM (inactive)	> 100 µM (inactive)	> 100 µM (inactive)	12 µM (inactive)	> 100 µM (inactive)	> 100 µM (inactive)	56.1 µM (inactive)
